Source: patent US6974804B2, “Esters” (Unilever Home & Personal Care USA, division of Conopco, Inc., priority 2000, dated 2005)

Test: Gelling of water-immiscible cosmetic liquids in 96 well glass micro-titre plate
Format: physicochemical
Set-up: key: gel; g4: gel after overnight (18 hrs) storage at 4° C.; g22: gel after overnight (18 hrs) storage at 22° C.; sg: soft gel; sg22: soft gel after overnight (18 hrs) storage at 22° C.; solution; *: the test at 4° C. was not carried out
Settings: for gelling of ISA: 150° C. 2.5 hours, cooled to ambient
Procedure: In this Example, various samples of esterified cellobiose prepared as in Example 1 or 2 above, were used to gel water-immiscible cosmetic liquids, in accordance with the procedure given below, in which a large number of gels can be prepared simultaneously.
The samples were tested in a 96 well (8×12 rows) glass micro-titre plate. […] About 0.01 or 0.02 g of each esterified cellobiose material was placed into 8 consecutive wells in a single row, so that each well contained approximately 5% or 10% of the cellobiose ester. The balance in each well comprised the cosmetic liquid by addition of approximately 0.2 g of the respective liquid to each cell. A glass lid was placed on top of the plate. The plate was carefully placed in a thermostatically controlled fan-assisted oven set at 150° C. for 2.5 hours. The plate was removed from the oven and allowed to cool naturally to ambient laboratory temperature. The contents of the wells were assessed at the end of the cooling period, by visual inspection and by poking the contents of each well with a micro-spatula. The plates were stored at […] for 18 hours and the contents inspected, and further stored for 18 hours at 4° C. and inspected for a third time. The results obtained in the tests are summarised in Table 5 below, in which the legend is as follows: […]

[1] = 5% cellobiose ester in Fluid AP
[2] = 5% cellobiose ester in Mineral oil
[3] = 5% cellobiose ester in Polydecene
[4] = 10% cellobiose ester in Fluid AP
[5] = 10% cellobiose ester in Mineral oil
[6] = 10% cellobiose ester in Polydecene

| Structure (SMILES) | gelling of DC556 (5% cellobiose ester in DC556) | gelling of Fluid AP [1] | gelling of ISA (5% cellobiose ester in ISA) | gelling of Mineral oil [2] | gelling of Polydecene [3] | gelling of DC556 (10% cellobiose ester in DC556) | gelling of Fluid AP [4] | gelling of ISA (10% cellobiose ester in ISA) | gelling of Mineral oil [5] | gelling of Polydecene [6] | gelling of IPM (5% cellobiose ester in IPM) | gelling of IPM (10% cellobiose ester in IPM) |
| --- | --- | --- | --- | --- | --- | --- | --- | --- | --- | --- | --- | --- |
| CCCCCCCCC(=O)OCC1OC(OC2C(COC(=O)CCCCCCCC)OC(OC(=O)CCC)C(OC(=O)CCCCCCCC)C2OC(=O)CCCCCCCC)C(OC(=O)CCCCCCCC)C(OC(=O)CCCCCCCC)C1OC(=O)CCCCCCCC (mixture of isomers) [Ex 1.18] | gel | gel | sg22 | g22 | gel | gel | gel | gel | gel | gel | – | – |
| CCCCCCCCC(=O)OCC1OC(OC2C(COC(=O)CCCCCCCC)OC(OC(=O)C3CCCCC3)C(OC(=O)CCCCCCCC)C2OC(=O)CCCCCCCC)C(OC(=O)CCCCCCCC)C(OC(=O)CCCCCCCC)C1OC(=O)CCCCCCCC (mixture of isomers) [Ex 1.11] | g22 | gel | g22 | g22 | gel | gel | gel | g22 | g22 | gel | sol | sol |
| CCCCCCCCCC(=O)OCC1OC(OC2C(COC(=O)CCCCCCCCC)OC(OC(C)=O)C(OC(=O)CCCCCCCCC)C2OC(=O)CCCCCCCCC)C(OC(=O)CCCCCCCCC)C(OC(=O)CCCCCCCCC)C1OC(=O)CCCCCCCCC (mixture of isomers) [Ex 2.3] | gel | gel | gel | gel | gel | gel | gel | gel | gel | gel | – | – |
| CCCCCCCCC(=O)OCC1OC(OC2C(COC(=O)CCCCCCCC)OC(OC(=O)C3CCCC3)C(OC(=O)CCCCCCCC)C2OC(=O)CCCCCCCC)C(OC(=O)CCCCCCCC)C(OC(=O)CCCCCCCC)C1OC(=O)CCCCCCCC (mixture of isomers) [Ex 3.5] | g22 | sg22 | sg22 | sol* | gel | gel | gel | g22 | gel | gel | – | – |
| CCCCCCCCCC(=O)OCC1OC(OC2C(COC(=O)CCCCCCCCC)OC(OC(C)=O)C(OC(=O)CCCCCCCCC)C2OC(=O)CCCCCCCCC)C(OC(=O)CCCCCCCCC)C(OC(=O)CCCCCCCCC)C1OC(=O)CCCCCCCCC (mixture of isomers) [Ex 2.5] | gel | gel | gel | gel | gel | – | – | – | – | – | – | – |
| CCCCCCCCC(=O)OCC1OC(OC2C(COC(=O)CCCCCCCC)OC(OC(=O)CCCC)C(OC(=O)CCCCCCCC)C2OC(=O)CCCCCCCC)C(OC(=O)CCCCCCCC)C(OC(=O)CCCCCCCC)C1OC(=O)CCCCCCCC (mixture of isomers) [Ex 1.20] | g22 | g22 | sg22 | g22 | gel | g22 | gel | g22 | g22 | gel | – | – |
| CCCCCCCCC(=O)OCC1OC(OC2C(COC(=O)CCCCCCCC)OC(OC(=O)CC)C(OC(=O)CCCCCCCC)C2OC(=O)CCCCCCCC)C(OC(=O)CCCCCCCC)C(OC(=O)CCCCCCCC)C1OC(=O)CCCCCCCC (mixture of isomers) [Ex 1.16] | gel | gel | gel | gel | gel | gel | gel | gel | gel | gel | – | – |
| CCCCCCCCCC(=O)OCC1OC(OC2C(COC(=O)CCCCCCCCC)OC(OC(=O)CCCCC)C(OC(=O)CCCCCCCCC)C2OC(=O)CCCCCCCCC)C(OC(=O)CCCCCCCCC)C(OC(=O)CCCCCCCCC)C1OC(=O)CCCCCCCCC (mixture of isomers) [Ex 2.11] | gel | gel | gel | gel | gel | gel | gel | gel | gel | gel | – | – |
| CCCCCCCCCCCCCCCC(=O)OC1OC(COC(=O)CCCCCCCCC)C(OC2OC(COC(=O)CCCCCCCCC)C(OC(=O)CCCCCCCCC)C(OC(=O)CCCCCCCCC)C2OC(=O)CCCCCCCCC)C(OC(=O)CCCCCCCCC)C1OC(=O)CCCCCCCCC (mixture of isomers) [Ex 2.13] | gel | gel | gel | gel | gel | gel | gel | gel | gel | gel | – | – |
| CCCCCCCCCCCC(=O)OC1OC(COC(=O)CCCCCCCC)C(OC2OC(COC(=O)CCCCCCCC)C(OC(=O)CCCCCCCC)C(OC(=O)CCCCCCCC)C2OC(=O)CCCCCCCC)C(OC(=O)CCCCCCCC)C1OC(=O)CCCCCCCC (mixture of isomers) [Ex 1.23] | gel | sg | g22 | g22 | gel | gel | gel | g22 | g22 | gel | – | – |
| CCCCCCCCCC(=O)OCC1OC(OC2C(COC(=O)CCCCCCCCC)OC(OC(=O)c3ccccc3)C(OC(=O)CCCCCCCCC)C2OC(=O)CCCCCCCCC)C(OC(=O)CCCCCCCCC)C(OC(=O)CCCCCCCCC)C1OC(=O)CCCCCCCCC (mixture of isomers) [Ex 2.2] | gel | gel | gel | gel | gel | gel | gel | gel | gel | gel | – | – |
| CCCCCCCCC(=O)OCC1OC(OC2C(COC(=O)CCCCCCCC)OC(OC(=O)c3ccc(-c4ccccc4)cc3)C(OC(=O)CCCCCCCC)C2OC(=O)CCCCCCCC)C(OC(=O)CCCCCCCC)C(OC(=O)CCCCCCCC)C1OC(=O)CCCCCCCC (mixture of isomers) [Ex 1.15] | gel | gel | gel | gel | gel | gel | gel | gel | gel | gel | – | – |
